Results published in patent US9611223B2, “3-aryl-5-substituted-isoquinolin-1-one compounds and their therapeutic use” (INSTITUTE OF CANCER RESEARCH: ROYAL CANCER HOSPITAL (THE), priority 2013, dated 2017).
pIC50: −log10 of the molar value.

How the values were obtained:
Type in all cases: cell-based
HT55 cells = assay: Long-Term Clonogenic Assay (HT55 cells); details: Homo sapiens, 12-14 days, read-out: cell inhibitory SF50 (HT55)
Method: Clonogenic Inhibition in DLD1 or HT55 Cells
In order to determine the efficacy of chronic dosing of putative TNKS inhibitors, long term clonogenic or ‘colony formation’ assays were carried out. This included the sparse seeding of cells in a 6-well dish followed by continuous dosing of cells over 12-14 days (depending on relative cell growth). Appropriate cell lines (DLD1 or HT55) were seeded at 500 cells/well in a 6-well dish in DMEM supplemented with FBS. After overnight incubation, cells were treated with the appropriate putative TNKS inhibitor at 10 μM, 3 μM, 1 μM, 0.30 μM, 0.1 μM and 0 μM at 0.2-1% final DMSO concentration (cell line dependent) in DMEM supplemented with 10% FBS (DLD1 cells were dosed in DMEM supplemented with 0.5% FBS). Dosages were carried out in triplicate. Cell media containing compound or DMSO only was replenished every 48 hours. On termination of the assay, plates were read with Cell Titre Glo reagent and luminescence measured on an appropriate plate reader.
The data was normalised to the DMSO control and was expressed as surviving fraction as a function of inhibitor dose. Dose response curves used to determine SF50 values were Log transformed and analysed by non-linear regression analysis (variable slope) using Prism (GraphPad Software, Inc).

Wnt signalling = assay: Wnt-Luciferase Reporter Assay; details: DLD1-Wnt-Luc cells, 20-22 hours
Method: Wnt-Luciferase Reporter Assay
A Wnt dependent cell line (i.e., DLD1 colorectal adenocarcinoma cell line) was transduced with replication incompetent VSV-g pseudotyped lentiviral particles expressing the firefly luciferase gene under the control of minimal cytomegalovirus (mCMV) promoter and tandem repeats of the TCF/LEF transcriptional response element.
DLD1-Wnt-Luc cells were seeded (5000 cells/well) in a 96-well plate (Greiner Bio-One, cat. no. 655098) in Dubelco's Modified Eagle Medium (DMEM, SFBCO/Invitrogen, cat no. 41965-039) supplemented with Fetal Bovine Serum (FBS, 10%, SFBCO/Invitrogen, cat no. 10108-165). After overnight incubation, the media was replaced with OptiMEM (SFBCO/Invitrogen, cat no. 11058-021) supplemented with FBS (0.5%) and non-essential amino acids (1%, SFBCO/Invitrogen, cat no. 11140-035) and the appropriate putative TNKS inhibitor at a final concentration of 10 μM, 3 μM, 1 μM, 0.30 μM, 0.10 μM, 0.030 μM, 0.010 μM and 0 μM with 1% (v/v) final DMSO in double-triplicate wells. Positive control includes the use of XAV-939 (Maybridge, FisherScientific, 3,5,7,8-tetrahydro-2-[4-(trifluoromethyl)phenyl]-4H-thiopyrano[4,3-d]pyrimidin-4-one, cat. no. RF03920, see: Huang et al., Nature, 2009, Vol. 461, pp. 614-620). Cells were incubated for 20-22 hours before assaying for luciferase (first set of triplicates: Wnt activation) and viability (second set of triplicates: cell survival for data normalisation vs Wnt-activation) using ONE-Glo (Promega, cat. no. E6110) and CellTiter-Glo (Promega, cat. no. G7570) reagents consecutively. The assay was measured using a Victor^2 plate reader. The data were normalised to the DMSO control and were expressed as % Wnt activity as a function of inhibitor dose. Dose response curves used to determine IC50 values were Log transformed and analysed by non-linear regression analysis (variable slope) using Prism (GraphPad Software, Inc).

COLO320DM cells = assay: Tumour Cell Inhibition Assay (COLO320DM cells); details: Homo sapiens, COLO 320DM, 120 h, five day exposure, read-out: cell inhibitory SF50 (COLO320DM)
Method: Tumour Cell Inhibition in Colorectal Tumour Cells
In order to determine the efficacy of acute dosing of putative TNKS inhibitors, five day exposure cell viability assays were carried out. This included the sparse seeding of cells in a 96-well plate followed by continuous dosing of cells over a five day period.
Appropriate cell lines (HT55, COLO320DM and SW620) were seeded at 500 cells/well in a 96-well plate in MEM (HT55), RPMI (COLO320DM) or DMEM (SW620) supplemented with FBS. After overnight incubation, cells were treated with the appropriate putative TNKS inhibitor in 6 or 10 concentrations ranging from 0 μM to 10 μM at 0.2% final DMSO concentration in appropriate media supplemented with 10% or 0.5% FBS. Dosages were carried out in triplicate. Termination of the assay and measurement of cell viability was achieved by the use of Cell Titre Glo reagent and luminescence measurement on an appropriate plate reader.
Dose response curves used to determine SF50 values were Log transformed and analysed by non-linear regression analysis (variable slope) using Prism (GraphPad Software, Inc).

SMILES | pIC50 (HT55 cells) | pIC50 (Wnt signalling) | pIC50 (COLO320DM cells)
CN(C)C1CCN(Cc2ccc(-c3cc4c(C#N)cccc4c(=O)[nH]3)cc2)C1 (stereo not drawn) [IQ-011] | > 5.30 | > 6.52 | > 5.30
CN(C)C1CCN(Cc2ccc(-c3cc4c(C#N)cccc4c(=O)[nH]3)cc2)CC1 [IQ-012] | > 5.30 | > 6.52 | > 5.30
CN1CCN(Cc2ccc(-c3cc4c(C#N)cccc4c(=O)[nH]3)cc2)CC1 [IQ-002, 3-[4-(4-Methyl-piperazin-1-ylmethyl)-phenyl]-1-oxo-1,2-dihydro-isoquinoline-5-carbonitrile] | > 5.30 | > 6.52 | > 5.30
CN1CCN(Cc2ccc(-c3cc4c(C#N)cc(F)cc4c(=O)[nH]3)cc2)CC1 [IQ-014] | > 5.30 | > 6.52 | > 5.30
